Laboratory results taken from publication PMC6344527, “Toxicity and possible mechanisms of action of honokiol from Magnolia denudata seeds against four mosquito species” (Scientific Reports, 2019).
Values after ≈ are worked out from the molar mass of the structure shown. Like-named read-outs stand apart in the source and are kept apart here.

How the values were obtained:
[1] = tested on: mosquito species larvae; conditions: cited from earlier work
[2] = tested on: third-instar larvae of insecticide-susceptible Culex pipiens pallens; experiment: contact mortality bioassay, 24 h exposure; type: in vivo; conditions: for LC50: Culex pipiens, 24 h; for LC50 / LC90 (mg/L) (95% CI) / LC50 (mg/L) (95% CI): 24 h exposure
Procedure: (§1) A contact mortality bioassay[25] was used to evaluate the toxicity of all compounds against third-instar larvae of the four mosquito species. Each test compound in methanol was suspended in DW with Triton X-100 (20 µL/L). Groups of 20 mosquito larvae were separately placed into paper cups (270 mL) containing each compound solution (250 mL). […] Negative controls consisted of a methanol–Triton X-100 solution in DW.
(§2) Treated and control (methanol–Triton X-100 solution only) larvae were maintained under the same conditions as those used for colony maintenance without providing food. Larval mortalities were determined 24 h post-treatment. […] All treatments were performed three times using 20 larvae per replicate.
(§3) The concentration of the test compounds required to produce 50% AChE inhibitory activity (IC50) was determined using the SAS 9.13 program (Cary: SAS Institute; 2014). Concentration-mortality data were subjected to probit analysis using the SAS 9.13 program. […] Statistical analyses were performed using the SAS 9.13 program. Multiple linear regression and correlation analysis were performed using the SPSS 24 program (Armonk: IBM Corp.; 2016).

[3] = tested on: third-instar larvae of insecticide-susceptible Aedes aegypti; experiment: contact mortality bioassay, 24 h exposure; type: in vivo; conditions: for LC50: Aedes aegypti, 24 h; for LC50 / LC90 (mg/L) (95% CI) / LC50 (mg/L) (95% CI): 24 h exposure
Procedure: as §1, §2, §3

[4] = target: acetylcholinesterase (AChE) from third-instar Ae. aegypti larvae (Aedes aegypti, UniProt A4GND7); experiment: acetylcholinesterase inhibition assay; type: biochemical; conditions: based on IC50 values
acetylcholinesterase (AChE) from third-instar Ae. aegypti larvae, sequence (A4GND7 37-679): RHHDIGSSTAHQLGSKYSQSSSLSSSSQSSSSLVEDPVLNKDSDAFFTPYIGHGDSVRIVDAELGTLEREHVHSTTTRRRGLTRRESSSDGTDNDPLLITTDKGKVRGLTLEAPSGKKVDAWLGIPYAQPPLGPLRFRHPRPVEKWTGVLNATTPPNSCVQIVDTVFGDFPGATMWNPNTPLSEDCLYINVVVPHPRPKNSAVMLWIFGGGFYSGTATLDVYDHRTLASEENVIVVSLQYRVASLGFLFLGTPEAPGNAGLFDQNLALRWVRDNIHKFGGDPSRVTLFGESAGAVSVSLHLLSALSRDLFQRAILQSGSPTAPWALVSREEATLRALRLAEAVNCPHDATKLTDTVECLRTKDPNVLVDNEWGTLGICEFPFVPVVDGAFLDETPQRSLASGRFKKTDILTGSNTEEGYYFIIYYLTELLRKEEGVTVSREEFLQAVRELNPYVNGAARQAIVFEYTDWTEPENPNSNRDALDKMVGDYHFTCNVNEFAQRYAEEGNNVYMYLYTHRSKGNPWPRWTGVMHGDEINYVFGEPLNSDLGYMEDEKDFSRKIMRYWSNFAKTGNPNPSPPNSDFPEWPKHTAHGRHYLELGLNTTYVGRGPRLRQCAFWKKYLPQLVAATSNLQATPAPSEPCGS
Procedure: The in vitro AChE inhibitory activity of the test compounds was assessed according to the method of Perumalsamy et al.[42]. Third-instar Ae. aegypti larvae were used in all experiments. Whole bodies of 50 larvae were homogenized in 1 mL of ice-cold 0.1 M phosphate buffer (pH 8.0) using a glass tissue homogenizer. After filtering through cheesecloth, the homogenate was centrifuged at 1,000 × g at 4 °C for 5 min. The supernatant was used directly as the enzyme source for AChE. The protein levels were determined using the Bradford Protein Assay Kit (Bio-Rad Laboratories, Hercules, CA, USA) using BSA as the standard. The reaction mixture consisted of 50 µL of the crude enzyme preparation (4.3–4.8 µg protein equivalents), 150 µL of 0.1 M phosphate buffer, 20 µL of 3 mM DTNB in phosphate buffer (pH 7.0), and 1 µL of various concentrations of each test compound in ethanol. The reaction mixture was incubated at 30 °C for 5 min, and 20 µL of 32 mM ATChI was then added to the mixture. After incubation for 30 min, the reaction was terminated by adding 20 µL of 5 mM eserine salicylate. Absorbance was recorded at 412 nm using a VersaMax microplate reader (Molecular Devices, Sunnyvale, CA, USA). […] The results are expressed as the means ± standard errors (SEs) of triplicate samples from three independent experiments.
as §3

[5] = tested on: larvae of four mosquito species (Cx. pipiens pallens, Ae. aegypti, Ae. albopictus, and An. sinensis); experiment: contact mortality bioassay, range over four mosquito species; type: in vivo; conditions: 24 h
Procedure: as §1, §2, §3

[6] = tested on: third-instar larvae of insecticide-resistant Anopheles sinensis; experiment: contact mortality bioassay, 24 h exposure; type: in vivo; conditions: Table 5, larvae resistant to deltamethrin and temephos, 24 h exposure; for LC50: Anopheles sinensis, read-out: LC50 (mg/L) (95% CI); for Slope ± SE: probit slope
Procedure: as §1, §2, §3

[7] = tested on: third-instar larvae of insecticide-susceptible Aedes albopictus; experiment: contact mortality bioassay, 24 h exposure; type: in vivo; conditions: for LC50: Aedes albopictus, read-out: LC50 (mg/L) (95% CI); for LC50 / LC90 (mg/L) (95% CI) / Slope ± SE: Table 4, 24 h exposure; for Slope ± SE: probit slope
Procedure: as §1, §2, §3

[8] = Table 6, structure-activity series, read-out: LC50 (mg/L) (95% CI)
[9] = Table 6, structure-activity series
[10] = Table 7, structure-activity series, read-out: LC50 (mg/L) (95% CI)
[11] = Table 7, structure-activity series
[12] = Table 2, KS-CP strain, read-out: LC50 (mg/L) (95% CI)
[13] = Table 3, read-out: LC50 (mg/L) (95% CI)
[14] = Table 3, listed as Pure linoleic acid
[15] = Table 2, KS-CP strain, listed as Pure palmitic acid
[16] = Table 3, listed as Pure palmitic acid

## CC(C)=C1C[C@H]2C(=C(C)C(=O)C1=O)CC[C@]2(C)O [9-oxoneoprocurcumenol]
[1]; terpenoids
  LC50: 5.81 mg/L (≈ 23.4 µM)

## O=C(O)/C=C/c1ccc(O)c(O)c1 [Caffeic acid, caffeic acid]
[2]; [8]
  LC50: 119 mg/L (≈ 662 µM)
[2]; [9]
  LC90 (mg/L) (95% CI): 245.6 (208.1–323.3) mg/L
[3]; [10]
  LC50: 124 mg/L (≈ 691 µM)
[3]; [11]
  LC90 (mg/L) (95% CI): 235.9 (204.2–296.1) mg/L

## COP(=O)(OC)OC=C(Cl)Cl [Dichlorvos, dichlorvos, reference compound]
[2]; read-out: LC50 (mg/L) (95% CI), Table 6, structure-activity series
  LC50: 0.103 mg/L (≈ 0.466 µM)
[2]; [9]
  LC90 (mg/L) (95% CI): 0.504 (0.380–0.761) mg/L
[3]; read-out: LC50 (mg/L) (95% CI), Table 7, structure-activity series
  LC50: 0.158 mg/L (≈ 0.715 µM)
[3]; [11]
  LC90 (mg/L) (95% CI): 0.660 (0.505–0.963) mg/L
[4]
  AChE inhibitory activity (in words): did not differ significantly

## C=CCc1ccc(O)c(OC)c1 [Eugenol, eugenol]
[2]; [8]
  LC50: 74.3 mg/L (≈ 453 µM)
[2]; [9]
  LC90 (mg/L) (95% CI): 143.3 (127.2–170.3) mg/L
[3]; [10]
  LC50: 75.8 mg/L (≈ 461 µM)
[3]; [11]
  LC90 (mg/L) (95% CI): 141.4 (126.3–166.2) mg/L

## COc1ccccc1O [Guaiacol, guaiacol]
[2]; [8]
  LC50: 108 mg/L (≈ 868 µM)
[2]; [9]
  LC90 (mg/L) (95% CI): 205.6 (176.3–260.9) mg/L
[3]; [10]
  LC50: 115 mg/L (≈ 930 µM)
[3]; [11]
  LC90 (mg/L) (95% CI): 223.1 (188.3–292.1) mg/L

## CCCCC/C=C\C/C=C\CCCCCCCC(=O)O [Linoleic acid, (9Z,12Z)-9,12-octadecadienoic acid]
[5]
  LC50: 6.97 to 7.5 µg/mL (≈ 24.9 to 26.7 µM)
[6]
  LC50: 7.5 mg/L (≈ 26.7 µM)
  LC90 (mg/L) (95% CI): 16.04 (14.05–19.06) mg/L
  Slope ± SE: 3.9 ± 0.56
[2]; [12]
  LC50: 6.97 mg/L (≈ 24.9 µM)
[2]; Table 2, KS-CP strain, listed as Natural linoleic acid
  LC90 (mg/L) (95% CI): 19.41 (15.94–26.34) mg/L
[2]; Table 2, KS-CP strain, listed as Pure linoleic acid
  LC50 (mg/L) (95% CI): 8.36 (6.09–10.40) mg/L
[2]; from 24 h LC50 values
  times less toxic than temephos: 430 times
[3]; [13]
  LC50: 7.19 mg/L (≈ 25.6 µM)
[3]; Table 3, listed as Natural linoleic acid
  LC90 (mg/L) (95% CI): 27.04 (20.52–43.96) mg/L
[3]; [14]
  LC50 (mg/L) (95% CI): 7.34 (5.58–8.92) mg/L
  LC90 (mg/L) (95% CI): 29.70 (23.19–43.79) mg/L
[3]; from 24 h LC50 values
  times less toxic than temephos: 575 times
[7]
  LC50: 7.28 mg/L (≈ 26 µM)
  LC90 (mg/L) (95% CI): 27.81 (20.95–46.02) mg/L
  Slope ± SE: 4.4 ± 0.59
[7]; from 24 h LC50 values
  times less toxic than temephos: 552 times

## C=CCc1cc(OC)c(O)c(OC)c1 [Methoxyeugenol, methoxyeugenol]
[2]; [8]
  LC50: 8.4 mg/L (≈ 43.2 µM)
[2]; [9]
  LC90 (mg/L) (95% CI): 25.52 (20.27–36.92) mg/L
[3]; [10]
  LC50: 9.15 mg/L (≈ 47.1 µM)
[3]; [11]
  LC90 (mg/L) (95% CI): 29.46 (22.83–44.88) mg/L
[4]
  AChE inhibitory activity (in words): lowest of all of the compounds that were examined

## CCCCCCCCCCCCCCCC(=O)O [Palmitic acid, hexadecanoic acid]
[5]
  LC50: 32.6 to 47.6 µg/mL (≈ 127 to 186 µM)
[1]; flavonoids and fatty acids
  LC50: 34.50 to 42.96 mg/L
[6]
  LC50: 47.6 mg/L (≈ 186 µM)
  LC90 (mg/L) (95% CI): 192.8 (148.1–282.2) mg/L
  Slope ± SE: 2.1 ± 0.22
[2]; [12]
  LC50: 32.6 mg/L (≈ 127 µM)
[2]; Table 2, KS-CP strain, listed as Natural palmitic acid
  LC90 (mg/L) (95% CI): 112.3 (88.96–156.2) mg/L
[2]; [15]
  LC50 (mg/L) (95% CI): 34.92 (29.48–40.76) mg/L
  LC90 (mg/L) (95% CI): 119.3 (94.38–166.4) mg/L
[3]; [13]
  LC50: 33.5 mg/L (≈ 131 µM)
[3]; Table 3, listed as Natural palmitic acid
  LC90 (mg/L) (95% CI): 129.3 (99.59–189.2) mg/L
[3]; [16]
  LC50 (mg/L) (95% CI): 36.49 (29.30–44.83) mg/L
  LC90 (mg/L) (95% CI): 204.1 (139.4–378.1) mg/L
[7]
  LC50: 36.9 mg/L (≈ 144 µM)
  LC90 (mg/L) (95% CI): 135.1 (104.3–196.9) mg/L
  Slope ± SE: 3.1 ± 0.38

## C=CC[C@@]12C=C(OC)C(=O)C=C1O[C@H](c1ccc3c(c1)OCO3)[C@H]2C [burchellin]
[1]; neolignans
  LC50: 15.5 mg/L (≈ 45.5 µM)

## N#C[C@@H](O[C@@H]1O[C@H](CO)[C@@H](O)[C@H](O)[C@H]1O)c1ccc(O)cc1 [dhurrin]
[1]; cyanogenic glycosides
  LC50: 12 mg/L (≈ 38.5 µM)

## CCOC(=O)C=Cc1ccc(OC)cc1 [ethyl p-methoxycinnamate]
[1]; phenylpropanoids
  LC50: 12.3 to 20.7 mg/L

## C=C[C@@H](O)C#CC#C[C@@H](O)/C=C\CCCCCCC [falcarindiol]
[1]; acetylenic alcohols
  LC50: 6.51 mg/L (≈ 25 µM)

## C=C[C@H](O)C#CC#CC/C=C\CCCCCCC [falcarinol]
[1]; acetylenic alcohols
  LC50: 3.49 mg/L (≈ 14.3 µM)

## CC(C)=C1C[C@H]2C(=C(C)CC1=O)CC[C@]2(C)O [neoprocurcumenol]
[1]; terpenoids
  LC50: 13.69 mg/L (≈ 58.4 µM)

## C=CCc1cccc(OC)c1O [o-Eugenol, o-eugenol]
[2]; [8]
  LC50: 7.46 mg/L (≈ 45.4 µM)
[2]; [9]
  LC90 (mg/L) (95% CI): 23.13 (18.42–33.49) mg/L
[3]; [10]
  LC50: 8.84 mg/L (≈ 53.8 µM)
[3]; [11]
  LC90 (mg/L) (95% CI): 24.01 (19.52–33.06) mg/L
[4]
  AChE inhibitory activity (in words): relatively weak AChE inhibitors

## CCCCCCCC/C=C\CCCCCCCC(=O)O [oleic acid]
[1]; flavonoids and fatty acids
  LC50: 18.07 to 18.45 mg/L

## Oc1ccc(-c2ccc(O)cc2)cc1 [p,p′-Biphenol, p,p′-biphenol]
[2]; [8]
  LC50: 7.52 mg/L (≈ 40.4 µM)
[2]; [9]
  LC90 (mg/L) (95% CI): 23.97 (18.97–35.16) mg/L
[3]; [10]
  LC50: 8.34 mg/L (≈ 44.8 µM)
[3]; [11]
  LC90 (mg/L) (95% CI): 27.76 (21.50–42.52) mg/L
[4]
  AChE inhibitory activity (in words): relatively weak AChE inhibitors

## CCc1ccc(O)cc1 [p-Ethylphenol, p-ethylphenol]
[2]; [8]
  LC50: 8.3 mg/L (≈ 67.9 µM)
[2]; [9]
  LC90 (mg/L) (95% CI): 25.86 (20.36–38.21) mg/L
[3]; [10]
  LC50: 9.03 mg/L (≈ 73.9 µM)
[3]; [11]
  LC90 (mg/L) (95% CI): 30.57 (23.29–48.51) mg/L
[4]
  AChE inhibitory activity (in words): relatively weak AChE inhibitors

## (−)-asarinin
[1]; lignans
  LC50: 10.49 to 16.49 mg/L

## isoeugenol
[2]; [9]
  LC90 (mg/L) (95% CI): 138.1 (124.4–164.5) mg/L
[3]; [11]
  LC90 (mg/L) (95% CI): 137.2 (124.3–161.2) mg/L
